Laboratory results published in the supplement of paper PMC10307832.

Experiments:
Assay in all cases: relative viability (nuclei count vs DMSO), 5 days (fraction); higher = more cells survive
Pemetrexed + Trametinib = compound: Nc1nc2[nH]cc(CCc3ccc(C(=O)N[C@@H](CCC(=O)O)C(=O)O)cc3)c2c(=O)[nH]1 [Pemetrexed] + CC(=O)Nc1cccc(-n2c(=O)n(C3CC3)c(=O)c3c(Nc4ccc(I)cc4F)n(C)c(=O)c(C)c32)c1 [Trametinib] (partner 0.02 µM)
Method in brief: (§1)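 Lung cancer cell lines in 1536-well plates got either a single drug or a fixed anchor-drug dose together with five library-drug doses (not always all listed) in √10 steps, by pin tool, on the day after seeding. Nuclei were counted after 5 days, and relative viability is the treated-to-vehicle ratio of nuclei counts. Values are medians of duplicate plates.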

Idelalisib + Dasatinib = compound: CC[C@H](Nc1ncnc2[nH]cnc12)c1nc2cccc(F)c2c(=O)n1-c1ccccc1 [Idelalisib] + Cc1nc(Nc2ncc(C(=O)Nc3c(C)cccc3Cl)s2)cc(N2CCN(CCO)CC2)n1 [Dasatinib] (partner 0.075 µM)
Method in brief: as §1

Idelalisib + Decitabine = compound: CC[C@H](Nc1ncnc2[nH]cnc12)c1nc2cccc(F)c2c(=O)n1-c1ccccc1 [Idelalisib] + Nc1ncn([C@H]2C[C@H](O)[C@@H](CO)O2)c(=O)n1 [Decitabine] (partner 2 µM)
Method in brief: as §1

Pemetrexed + Tozasertib = compound: Nc1nc2[nH]cc(CCc3ccc(C(=O)N[C@@H](CCC(=O)O)C(=O)O)cc3)c2c(=O)[nH]1 [Pemetrexed] + Cc1cc(Nc2cc(N3CCN(C)CC3)nc(Sc3ccc(NC(=O)C4CC4)cc3)n2)n[nH]1 [Tozasertib] (partner 0.1 µM)
Method in brief: as §1

Row | Cell Line | relative viability (Pemetrexed + Trametinib; first compound 0.002 µM) | relative viability (Pemetrexed + Trametinib; first compound 0.006325 µM) | relative viability (Pemetrexed + Trametinib; first compound 0.02 µM) | relative viability (Pemetrexed + Trametinib; first compound 0.06325 µM) | relative viability (Pemetrexed + Trametinib; first compound 0.2 µM) | relative viability (Idelalisib + Dasatinib; first compound 0.04 µM) | relative viability (Idelalisib + Dasatinib; first compound 0.1265 µM) | relative viability (Idelalisib + Dasatinib; first compound 0.4 µM) | relative viability (Idelalisib + Dasatinib; first compound 1.265 µM) | relative viability (Idelalisib + Dasatinib; first compound 4 µM) | relative viability (Idelalisib + Decitabine; first compound 0.04 µM) | relative viability (Idelalisib + Decitabine; first compound 0.1265 µM) | relative viability (Idelalisib + Decitabine; first compound 0.4 µM) | relative viability (Idelalisib + Decitabine; first compound 1.265 µM) | relative viability (Idelalisib + Decitabine; first compound 4 µM) | relative viability (Pemetrexed + Tozasertib; first compound 0.002 µM) | relative viability (Pemetrexed + Tozasertib; first compound 0.006325 µM) | relative viability (Pemetrexed + Tozasertib; first compound 0.02 µM) | relative viability (Pemetrexed + Tozasertib; first compound 0.06325 µM) | relative viability (Pemetrexed + Tozasertib; first compound 0.2 µM)
1 | EMC-BAC-2 | 0.826 | 0.755 | 0.986 | 0.807 | 0.618 | 0.319 | 0.337 | 0.283 | 0.321 | 0.346 | 1 | 1.03 | 0.942 | 1.05 | 0.941 | 0.327 | 0.255 | 0.296 | 0.278 | 0.244
2 | ChaGo-K-1 | 0.902 | 0.848 | 0.871 | 0.662 | 0.31 | 0.548 | 0.516 | 0.534 | 0.563 | 0.585 | 0.515 | 0.404 | 0.524 | 0.538 | 0.46 | 0.24 | 0.218 | 0.25 | 0.212 | 0.176
3 | NCI-H2023 | 0.502 | 0.553 | 0.537 | 0.392 | 0.183 | 0.625 | 0.549 | 0.438 | 0.487 | 0.375 | 0.25 | 0.236 | 0.241 | 0.197 | 0.208 | 0.245 | 0.338 | 0.364 | 0.379 | 0.223
4 | EKVX | 0.337 | 0.327 | 0.37 | 0.297 | 0.218 | 0.492 | 0.549 | 0.348 | 0.436 | 0.341 | 0.323 | 0.341 | 0.334 | 0.294 | 0.316 | 0.373 | 0.398 | 0.37 | 0.367 | 0.263
